In paper PMC3394770, “Ipomoelin, a Jacalin-Related Lectin with a Compact Tetrameric Association and Versatile Carbohydrate Binding Properties Regulated by Its N Terminus” (PLoS ONE, 2012):
Like-named read-outs stand apart in the source and are kept apart here. Values belong to the molecule of their own block, whether it stands above or below them.

What was measured:
[1] = target: T1, IPO (Ipomoelin) (Ipomoea batatas, UniProt P93193); assay: isothermal titration calorimetry, one-site fit; format: binding; details: for Kd: read-out: K A(10^3 M^-1) (converted)
T1 construct: full length (residues 1-154), His-tagged, expressed in E. coli BL21(DE3) from pTZ18UH-IPO
T1 sequence (P93193 1-154): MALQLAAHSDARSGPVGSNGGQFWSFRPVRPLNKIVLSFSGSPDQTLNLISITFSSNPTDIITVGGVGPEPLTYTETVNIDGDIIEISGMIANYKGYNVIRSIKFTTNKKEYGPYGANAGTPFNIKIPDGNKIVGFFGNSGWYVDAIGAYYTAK

[2] = target: T2, ΔN10IPO (Ipomoea batatas, UniProt P93193); assay: isothermal titration calorimetry, one-site fit; format: binding; details: 20 mM Tris-HCl, 150 mM NaCl pH 7.0, 25 °C; n fixed at 1.0; read-out: K A(10^3 M^-1) (converted)
T2 construct: gene IPO; N-terminal residues 1-10 removed, Histrap-purified, expressed in E. coli BL21(DE3) from pTZ18UH-ΔN10IPO
Text: isothermal titration calorimetry, one-site fit on ΔN10IPO

[3] = target: the molecule itself; assay: crystal structure; hanging-drop vapor diffusion at room temperature; apo IPO and co-crystals with Me-Man, Me-Glc and Me-Gal in four space groups; tetramer in the asymmetric unit or by symmetric operations; interface analysed on IPO–Me-Glc with PDBe PISA
[4] = 20 mM Tris-HCl, 150 mM NaCl pH 7.0, 25 °C, n fixed at 1.0

KA [1, 4]: 1.05×10^2
Molecule: OC[C@H]1OC(O)[C@@H](O)[C@@H](O)[C@@H]1O (stereo partly drawn) [Man]

Kd [1, 4]: 142 µM | Kd [2]: 26.4 µM
Molecule: CO[C@H]1O[C@H](CO)[C@@H](O)[C@H](O)[C@@H]1O [Me-Man, methyl α-D-mannopyranoside]

KA [1, 4]: 0.32×10^2
Molecule: OC[C@H]1OC(O)[C@H](O)[C@@H](O)[C@@H]1O (stereo partly drawn) [Glc]

Kd [1]: 244 µM
Molecule: CO[C@H]1O[C@H](CO)[C@H](O)[C@H](O)[C@H]1O [Me-Gal, methyl α-D-galactopyranoside]

KA [1, 4]: 0.57×10^2
Molecule: OC[C@H]1OC(O)[C@H](O)[C@@H](O)[C@H]1O (stereo partly drawn) [Gal]

Kd [1, 4]: 498 µM | Kd [2]: 73.5 µM
Molecule: CO[C@H]1O[C@H](CO)[C@@H](O)[C@H](O)[C@H]1O [Me-Glc, methyl α-D-glucopyranoside]

B1: Ipomoelin (IPO) (natural protein, UniProt P93193 1-154, looked up)
chain: MALQLAAHSDARSGPVGSNGGQFWSFRPVRPLNKIVLSFSGSPDQTLNLISITFSSNPTDIITVGGVGPEPLTYTETVNIDGDIIEISGMIANYKGYNVIRSIKFTTNKKEYGPYGANAGTPFNIKIPDGNKIVGFFGNSGWYVDAIGAYYTAK
notes: Ipomoelin (IPO), Jacalin-related lectin of sweet potato (Ipomoea batatas cv. Tainung 57); gene GenBank D89823.1, protein GenBank BAA14024.1; monomer of residues 1 to 154; recombinant IPO with a His tag is 17.3 kDa as a monomer and 69.2 kDa as a tetramer; also called wildtype IPO; native IPO; source: E. coli BL21 (DE3), purified (Histrap FF)
stoichiometry N [3]: 4
